Test results as given in PMC8635029 (Frontiers in Pharmacology, 2021).
Counter-ions that a name gives are not always drawn.

Key:
[1] = system: ICR mice; test: Measurement of respiration (whole body plethysmography); assay type: in vivo
Procedure: A whole body plethysmography (DSI, US) was used to measure respiration in freely moving ICR mice (half male and half female) as described previously ([Manglik et al., 2016]; [Hill et al., 2018a]; [Hill et al., 2018b]) with some modifications. The respiratory frequency was recorded and then averaged for over 5-min period. The baseline values were recorded for 10 min before dosing. The mice were then removed from the chambers and given drugs, and respiration was then measured for 45 min.

[2] = system: mice; test: Locomotor activity test (sedation)
[3] = system: ICR mice; test: Compound 48/80-induced scratching test; assay type: in vivo; details: 0.02 mg/kg
Procedure: After acclimatization for 30–60 min in Plexiglas chambers, the male ICR mice were given vehicle or test compounds. Compound 48/80 (50 μg, 0.1 ml) was subcutaneously injected into the back of the neck at 15 min after drug administration ([Salaga et al., 2015]). The mice were immediately placed back into the chambers and the scratching behaviors were recorded for 30 min ([Kobayashi et al., 2003]; [Inan et al., 2009]; [Hachisuka et al., 2010]). One bout of scratching was defined as the mouse lifting its hindpaw towards the injection site to scratch until it either licked or bite the hindpaw or placed it back down on the floor ([Nojima and Carstens, 2003]). The percentage inhibition of scratching was calculated by the following formula: % antipruritis = (Bv−Bt)/Bv × 100, where Bv is the bouts of scratching in vehicle group and Bt is the bouts of scratching in treatment groups.

[4] = system: SD rats; test: Chronic constriction injury (CCI) model (mechanical allodynia, von Frey); assay type: in vivo; details: 10 mg/kg
Procedure: The CCI surgery was performed as described previously with slight modifications ([Bennett and Xie, 1988]). Male SD rats were used in the CCI model. After isoflurane inhalation anesthesia, the femoral skin of the left hindlimb was incised and the sciatic nerve was exposed by blunt dissection of the biceps femoris muscle with a pair of forceps ([Chen et al., 2018]). A 2 mm-long polyethylene cuff was successively implanted around the nerve and the incision was then closed with skin stapler ([Bailey and Ribeiro-da-Silva, 2006]; [Balasubramanyan et al., 2006]). Animals were returned to their cages after recovering from anesthesia. Seventeen days after the surgery, the responses to mechanical stimulation of the hindpaws were measured before the compounds were administered. The rats were then divided into different groups according to the pre-administration values. After the animals were given vehicle or test compounds, the mechanical pain thresholds were taken at multiple time points.
(§1) The rats were placed individually in Plexiglas chambers on a metallic mesh floor and allowed to acclimatize for 30–60 min ([Tsuda et al., 2011]). Mechanical allodynia was determined by probing the plantar surface of the hindpaw from below the mesh floor with a series of calibrated von Frey filaments (Stoelting) in log increments of force ([Lai et al., 2006]). […]

[5] = system: C57BL/6J mice; test: Hot-plate test; assay type: in vivo; details: 10 mg/kg
Procedure: The hot-plate test was performed according to previous reports ([DeWire et al., 2013]; [Hill et al., 2018a]; [Wang et al., 2018]). Female C57BL/6J mice were individually placed on a hot plate at 56°C and the latency to licking or jumping was then recorded. A cut-off time of 30 s was imposed in order to prevent tissue damage. Before drug administration, the latency of each mouse was measured and defined as the pre-drug value. The animals with a pre-drug value of greater than 20 s were excluded.

[6] = system: ICR mice; test: Acetic acid-induced writhing test; assay type: in vivo; details: 10 mg/kg s.c., 24 h post-dosing
Procedure: ICR mice (half male and half female) were used in this assay. […] A writhe was defined as a wave of contraction of the abdominal musculature followed by extension of the hind limbs ([Wang et al., 2018]). The percentage inhibition of writhes was calculated by the following formula: % antinociception = (Nv−Nt)/Nv × 100, where Nv is the number of writhes in vehicle group and Nt is the number of writhes in treatment groups.

[7] = system: SD rats; test: Hindpaw incision model (mechanical allodynia, von Frey); assay type: in vivo; details: 10 mg/kg
Procedure: The surgery was conducted as reported previously ([Brennan et al., 1996]; [Whiteside et al., 2004]; [Biddlestone et al., 2007]). Male SD rats were anesthetized with isoflurane inhalation (3–5%) and the plantar surface of the left hindpaw was sterilized using iodophor solution. A 1-cm longitudinal incision was made on the plantar surface with no. Eleven scalpel blade, starting at 0.5 cm from the heel and extending toward the toes. The deep fascia was cut to expose the flexor digitorum brevis muscle. The muscle was elevated with curved forceps and incised longitudinally with the tip of a scalpel blade without disturbing the origin and insertion. […] The responses to mechanical stimulation of the hindpaws were recorded at 2 h post-surgery and the mechanical pain thresholds were defined as pre-dose values. After dividing into different groups according to the pre-dose values, the animals were administered vehicle (normal saline) or test compounds and the mechanical pain thresholds were measured at 15 min and 24 h post-dose.
as §1

With `CC(C)C[C@@H](NC(=O)[C@@H](Cc1ccccc1)NC(=O)[C@H](N)Cc1ccccc1)C(=O)N[C@H](CCCCN)C(=O)N1CCC(N)(C(=O)O)CC1` [CR845] the “effect on respiratory rate” value ([1]; 2 mg/kg) was “significant decrease”, the “time post-administration at which respiratory rate was significantly decreased” value ([1]; 2 mg/kg) was 25 min and the “time post-drug at which effects on respiratory rate reached a peak” value ([1]; 2 mg/kg) was 45 min. For the same compound, the “effect on locomotor activity / total distance traveled” value ([2]; 0.4 mg/kg, 15 min post-dosing) was “obvious decrease”.

For `CN(C(=O)/C=C/c1ccoc1)[C@@H]1CC[C@@]2(O)[C@H]3Cc4ccc(O)c5c4[C@@]2(CCN3CC2CC2)[C@H]1O5` [nalfurafine, nalfurafine hydrochloride], the “inhibitory rate on scratching responses” value [3] was 94.30%.

For `CN1CC[C@]23c4c5ccc(O)c4O[C@H]2[C@@H](O)C=C[C@H]3[C@H]1C5` [morphine, morphine sulfate], the “effect on respiratory rate” value ([1]; 10 mg/kg) was “significantly reduced”, the “effect on CCI-induced mechanical allodynia” value ([4]; 15 min after dosing) was “completely inhibited” and the “effect on pain behaviors” value ([4]; 24 h post-dosing) was “no any effect”. The “central antinociceptive effect in hot-plate test” value [5] was “almost complete efficacy”, the “efficacy in writhing test” value [6] was “vanished” and the “effect on hindpaw incision-induced mechanical allodynia” value ([7]; 15 min after dosing) was “completely inhibited”. For the same compound, the “effect on pain behaviors” value ([7]; 24 h post-dosing) was “no any effect” and the “effect on distance traveled” value ([2]; 10 mg/kg) was “reduced remarkedly”.
